# Data taken from patent US10258598B2, “Compounds for use in the prevention or treatment of cancer” ([…], priority 2014, dated 2019).
# Legend:
# [1] = system: male Wistar rats (Charles River); test: Longevity study: survival of rats under lifelong treatment; type: in vivo, rat; details: for month of age in which the first animal died: saline: 9th month; for lifespan versus saline-treated peers: both doses of each substance (FIGS. 5-8), Kaplan-Meier
# Description: Experiments were carried out on male Wistar rats (Charles River) weighing 250-350 g received from the breeding colony of Semmelweis University. The animals were kept in a 12-hour light-dark cycle and under condition of controlled temperature (22±2° C.) and relative humidity (55±5%). Room temperature and relative humidity was checked daily. The rats were maintained on standard laboratory chow and tap water ad libitum. All procedures conformed to the European Convention for the protection of vertebrate animals used for experimental and other scientific purposes. The study was approved by the Animal Ethics Committee of Semmelweis University, Budapest (permission number: 1810/003/2004)
# The longevity study was performed on 200 male rats received from the breeding colony of the Semmelweis University. The rats were born at the end of February of 2010. After 2-month acclimation period the rats were divided randomly into 5 even groups. The longevity study started at the beginning of May 2010. Animals were observed until their natural deaths. The data in this study represent the changes observed until Oct. 31, 2012, since in the saline-treated group the last animal died on Oct. 31, 2012. As will be shown later a few rats in the enhancer-treated groups were still alive on Nov. 1, 2012.
# During the longevity study 5 rats were housed together in polycarbonate cages (height: 18 cm; wide: 42 cm; length: 44 cm) with a stainless steel on the top. Cage bedding was renewed 3 times a week (Monday, Wednesday and Friday). Bodyweight was measured once every month. The treatment started at the end of the second month of their age. […] To avoid the mixing of the groups and individuals, saline-treated rats were signed blue from 1 to 40; D-treated rats were signed green from 1 to 80 (1-40: rats treated with 0.1 mg/kg and 41-80: rats treated with 0.001 mg/kg); B-treated rats were signed black from 1 to 80 (1-40: rats treated with 0.05 mg/kg and 41-80: rats treated with 0.0001 mg/kg).
# Significance in the performance between the groups in the shuttle box was evaluated by multi-factor analysis of variance (ANOVA). Significance regarding the span of time from tumor manifestation until death in rats and regarding aging related changes in bodyweight treated chronically with the enhancer substances was analyzed by One-way ANOVA. Statistical analysis of survival rate and tumor manifestation was performed by the Kaplan-Meier method.
# Daoy HTB-186 cell line = test: MTT proliferation assay, Daoy medulloblastoma cells; type: cell-based, human; details: 72 hours; for proliferation of cultured cells, monotherapy: nine concentrations between 10^-14 and 10^-6 M, MTT
# Description: (§1) Human medulloblastoma cell line, Daoy was purchased from ATCCC, UW-228 was obtained from the courtesy of Professor Silber (University of Washington, Seattle, Wash., USA).
# (§2) Daoy and UW-228-2 cell lines were maintained in culture medium (each 500 ml Minimum Essential Medium Eagle, Alpha Modification (M8042, Sigma, St Louis, USA) with 50 ml FCS (Gibco), 40 mg Gentamicin (Sandoz), 5 ml sodium-pyruvate (S8636, Sigma, St Louis, USA), 5 ml non-essential-amino acid solution (M7145, Sigma, St Louis, USA), 10 ml L-glutamin (Sigma, St Louis, USA) at 37° C. in humified 5% CO2.
# (§3) In each well 3×10^3 Daoy or UW-228-2 cells were seeded in 96-well plates (Sarstedt), solved in 100 µl of its own medium with 10% FCS. 24 hours after seeding, cells were treated for 72 hours by drugs solved in further 100 μl medium. First, both cell lines were treated by (−)-BPAP and (−)-deprenil in monotherapy to determine its dose-effect curves in concentration of 10^−6, 10^−7, […], 10^−9, 10^−10, 10^−11, 10^−12, 10^−13 and 10^−14 M. In combined treatment 10^−3, 3.3×10^−4, […] and 3.7×10^−5 M of temozolomide (Schering Plough, USA) or 0.04, 0.2, 1, 5 μM of Cisplatin (Ebewe Pharma, Austria) or 0.04, 0.2, 1, 5 μM of etoposide (Ebewe Pharma, Austria) or 10^−7, 10^−6, 10^−5 and 10^−4 μM (UW228-2) or 0.001, 0.005, 0.025 and 0.125 μM (Daoy) of Vincristin (Richter Gedeon, Hungary) were applied in monotherapy or combined with 10^−13 or 10^−8 M of (−)-BPAP or (−)-deprenil.
# (§4) Cell proliferation was evaluated by MTT (3-(4,5-Dimethylthiazol-2-yl)-2,5-diphenyltetrazolium bromide) assay (M5655, Sigma) after 72-hour treatment by the method described in manufacturer's protocol.
# UW-228-2 cell line = test: MTT proliferation assay, UW-228-2 medulloblastoma cells; type: cell-based, human; details: 72 hours; for proliferation of cultured cells, monotherapy: nine concentrations between 10^-14 and 10^-6 M, MTT
# Description: as §1, §2, §3, §4
# [2] = system: tetrabenazine-induced learning deficit; test: Shuttle box: conditioned avoidance reflex, antagonism of tetrabenazine-induced learning deficit; type: in vivo, rat; details: for very high dose range effective in antagonizing the tetrabenazine-induced learning deficit: attributed to inhibition of MAO-A; for optimal dose that exerted the specific enhancer effect: rats given 1 mg/kg tetrabenazine s.c. one hour prior to training
# Description: In a modified version of the shuttle box the acquisition of a two-way conditioned avoidance reflex (CAR) was analyzed during 5 consecutive days. The rat was put in a box divided inside into two parts by a barrier with a small gate in the middle, and the animal was trained to cross the barrier under the influence of a conditioned stimulus (CS, light flash). […] One trial consisted of 10 s intertrial interval, followed by 20 s CS. The last 5 s of CS overlaped the 5 s US. At each learning session, the number of CARs, EFs and intersignal reactions (IRs) are automatically counted and evaluated by multi-way ANOVA.
# Tetrabenazine-treatment (1 mg/kg s.c.) depletes at least 90% of norepinephrine and dopamine from their stores in the nerve terminals of the catecholaminergic neurons in the brain stem. Due to the weak performance of the catecholaminergic brain engine, the activation of the cortical neurons remains below the level required for the acquisition of a CAR. The learning deficit caused by tetrabenazine-treatment can be antagonized by the administration of a synthetic CAE substance or an A-type MAO inhibitor, whereas selective inhibition of B-type MAO or inhibition of the reuptake of catecholamines and/or serotonin is ineffective (Knoll et al., 1992).
# [3] = system: enhancer-sensitive neurons of isolated rat brain stem; details: optimal concentration for specific enhancer effect, 3-min collection period; review Knoll, 2005; cited from earlier work
# [4] = 10^-13 or 10^-8 M combined with temozolomide, Cisplatin, etoposide or Vincristin
smiles,measurement,setting,value
"CCCN[C@H](CCC)Cc1cc2ccccc2o1 [(−)-BPAP, (R)-1-(benzofuran-2-yl)-2-propylamino pentane]",month of age in which the first animal died,"[1]; 0.0001 mg/kg s.c. 3 times a week, N=40",16 month
same,rats remaining alive to the end of the 32nd month of age,"[1]; 0.0001 mg/kg, N=40, P<0.05 vs saline",one and One
same,month of age in which the first animal died,"[1]; 0.05 mg/kg s.c. 3 times a week, N=40",14 month
same,lifespan versus saline-treated peers,[1],significantly longer
same,effectiveness of tumor-cell proliferation inhibiting agents in combination,Daoy HTB-186 cell line; [4],did not change the effectiveness
same,"proliferation of cultured cells, monotherapy",Daoy HTB-186 cell line,did not inhibit the proliferation
same,"proliferation of cultured cells, monotherapy",Daoy HTB-186 cell line; listed as BPAP,In none of the applied concentrations
same,effectiveness of tumor-cell proliferation inhibiting agents in combination,UW-228-2 cell line; [4],did not change the effectiveness
same,"proliferation of cultured cells, monotherapy",UW-228-2 cell line,did not inhibit the proliferation
same,"proliferation of cultured cells, monotherapy",UW-228-2 cell line; listed as BPAP,In none of the applied concentrations
same,very high dose range effective in antagonizing the tetrabenazine-induced learning deficit,[2],2000 to 10000 µg/kg
same,optimal dose that exerted the specific enhancer effect,[2],0.1 µg/kg
same,dose with the non-specific enhancer effect selected for the longevity study,"[2]; rats given 1 mg/kg tetrabenazine s.c., for Deprenyl the less effective dose was chosen",50 µg/kg
same,"released amount of labeled transmitter ([3H]-norepinephrine, [3H]-dopamine or [3H]-serotonin) versus absence of substance",[3],significantly higher
"C#CCN(C)[C@H](C)Cc1ccccc1 [(−)-Deprenyl, (R)—N-methyl-N-(1-phenylpropan-2-yl)prop-2-yn-1-amine]",month of age in which the first animal died,"[1]; 0.001 mg/kg s.c. 3 times a week, N=40",13 month
same,month of age in which the last animal died,"[1]; 0.001 mg/kg, N=40",32 month
same,rats remaining alive to the end of the 32nd month of age,"[1]; 0.001 mg/kg, N=40, P>0.05 vs saline",none
same,month of age in which the first animal died,"[1]; 0.1 mg/kg s.c. 3 times a week from 2 months of age, N=40",11 month
same,lifespan versus saline-treated peers,[1],did not prolong the lifespan of rats significantly
same,"proliferation of cultured cells, monotherapy",Daoy HTB-186 cell line; listed as (−)-deprenyl,did not inhibit the proliferation
same,"proliferation of cultured cells, monotherapy",Daoy HTB-186 cell line; listed as Deprenyl,In none of the applied concentrations
same,"proliferation of cultured cells, monotherapy",UW-228-2 cell line; listed as (−)-deprenyl,did not inhibit the proliferation
same,"proliferation of cultured cells, monotherapy",UW-228-2 cell line; listed as Deprenyl,In none of the applied concentrations
same,form of the dose-effect relation of the enhancer effect,[2]; FIG. 3,"bi-modal, bell-shaped dose-effect-relation"
same,very high dose range effective in antagonizing the tetrabenazine-induced learning deficit,[2],5000 to 10000 µg/kg
same,optimal dose that exerted the specific enhancer effect,[2],1 µg/kg
same,"released amount of labeled transmitter ([3H]-norepinephrine, [3H]-dopamine or [3H]-serotonin) versus absence of substance",[3],significantly higher
